Reference: patent publication US8318757B2, “Substituted isoxazoline compound and pest control agent” (Nissan Chemical Industries, Ltd., priority 2007, dated 2012)
Read-outs that look alike come from different tables or passages of the source.

Key:
Format in all cases: in vivo
Homona magnanima = experiment: Mortality Test for Homona magnanima; details: in Brassica oleracea, 144 h
Method: (§1) A 10% emulsifiable concentrate of the compound of the present invention (depending on the type of the compound, a 10% wettable powder was subjected to the test) was diluted with water containing a spreader to prepare a drug solution in a concentration of 100 ppm. In this drug solution, a leaf of cabbage was immersed for about 10 seconds and was air-dried and then put into a petri dish. In the petri dish, five 2 instar larvae of Homona magnanima per petri dish were released and the petri dish was capped and stored in a thermostatic room of 25° C. The number of killed larvae after 6 days was measured and the mortality was calculated from the same calculation formula as that in Test Example 1. Here, the test was carried out on the duplicate samples.

[1] = test system: Frankliniella occidentalis; experiment: whole plant or invertebrate; details: in Phaseolus vulgaris, 48 h
Method: (§2) In a styrol cup having an inner diameter of 7 cm, a wet filtration paper was laid and on the paper, a leaf of kidney bean cut out so as to have the same diameter as the inner diameter of the cup was laid, followed by inoculating ten 1 instar larvae of Frankliniella occidentalis per leaf with the leaf. A 10% emulsifiable concentrate of the compound of the present invention (depending on the type of the compound, a 10% wettable powder was subjected to the test) was diluted with water containing a spreader to prepare a drug solution in a concentration of 500 ppm. The drug solution was sprayed using a rotary spray tower in an amount of 2.5 mL per styrol cup, and the cup was capped and stored in a thermostatic room of 25° C. The number of killed larvae after 2 days was measured and the mortality was calculated from the same calculation formula as that in Test Example 1. Here, the test was carried out on the duplicate samples.

Nilaparvata lugens = experiment: whole plant or invertebrate; details: 144 h
Method: A 10% emulsifiable concentrate of the compound of the present invention (depending on the type of the compound, a 10% wettable powder was subjected to the test) was diluted with water containing a spreader to prepare a drug solution in a concentration of 500 ppm. In this drug solution, a leaf sheath of rice was immersed for about 10 seconds and was air-dried and then put into a test tube. In the test tube, five 2 instar larvae of Nilaparvata lugens per test tube were released and the test tube was capped with a sponge and stored in a thermostatic room of 25° C. The number of killed larvae after 6 days was measured and the mortality was calculated from the same calculation formula as that in Test Example 1. Here, the test was carried out on the duplicate samples.

Bemisia argentifolii = experiment: whole plant or invertebrate; details: 144 h
Method: In a styrol cup having an inner diameter of 7 cm, a wet filtration paper was laid and on the paper, a cut-out leaf of tomato on which Bemisia argentifolii laid eggs (10 eggs/leaf) was laid. A 10% emulsifiable concentrate of the compound of the present invention (depending on the type of the compound, a 10% wettable powder was subjected to the test) was diluted with water containing a spreader to prepare a drug solution in a concentration of 500 ppm. The drug solution was sprayed using a rotary spray tower in an amount of 2.5 mL per styrol cup, and the cup was capped and stored in a thermostatic room of 25° C. The number of killed larvae after 6 days was measured and the mortality was calculated from the same calculation formula as that in Test Example 1. Here, the test was carried out on the duplicate samples.

Myzus persicae = experiment: whole plant or invertebrate; details: 144 h
Method: In a glass petri dish having an inner diameter of 3 cm, a wet absorbent cotton was laid and on the cotton, a leaf of cabbage cut out so as to have the same diameter as the inner diameter of the petri dish was laid, followed by releasing four apterous imagines of Myzus persicae on the leaf. After one day, a 10% emulsifiable concentrate of the compound of the present invention (depending on the type of the compound, a 10% wettable powder was subjected to the test) was diluted with water containing a spreader to prepare a drug solution in a concentration of 500 ppm. The drug solution was sprayed using a rotary spray tower (2.5 mg/cm^2), and the petri dish was capped and stored in a thermostatic room of 25° C. The number of killed imagines after 6 days was measured and the mortality was calculated from the same calculation formula as that in Test Example 1. Here, the test was carried out on the duplicate samples.

Liriomyza trifolii = experiment: whole plant or invertebrate; details: 144 h
Method: A 10% emulsifiable concentrate of the compound of the present invention (depending on the type of the compound, a 10% wettable powder was subjected to the test) was diluted with water containing a spreader to prepare a drug solution in a concentration of 500 ppm. In this drug solution, a leaf of kidney bean which was cut out to a diameter of 7 cm, on which Liriomyza trifolii laid eggs (10 eggs/leaf) was immersed for about 10 seconds and was air-dried and then laid on a wet filtration paper laid in a styrol cup having an inner diameter of 7 cm. The styrol cup was capped and stored in a thermostatic room of 25° C. The number of killed larvae after 6 days was measured and the mortality was calculated from the same calculation formula as that in Test Example 1. Here, the test was carried out on the duplicate samples.

Tetranychus urticae = experiment: whole plant or invertebrate; details: in Phaseolus vulgaris, 144 h
Method: as §2, with “ten” for “ten 1 instar”, “of Tetranychus urticae” for “of Frankliniella occidentalis”, “after 6” for “after 2”

Plutella xylostella = experiment: whole plant or invertebrate; details: 144 h
Method: as §1, with “10” for “100”, “Plutella xylostella” for “Homona magnanima”, “following” for “same”, “formula: Mortality (%)=(number of killed insect/number of released insect)×100.” for “formula as that in Test Example 1.”

Spodoptera litura = experiment: whole plant or invertebrate; details: 144 h
Method: as §1, with “10” for “100”, “Spodoptera litura” for “Homona magnanima”

Spodoptera exigua = experiment: Mortality Test for Spodoptera exigua; details: 144 h
Method: as §1, with “Spodoptera exigua” for “Homona magnanima”

Aculops pelekassi = experiment: whole plant or invertebrate; details: 144 h
Method: as §2, with “of mandarin orange” for “of kidney bean”, “ten” for “ten 1 instar”, “of Aculops pelekassi” for “of Frankliniella occidentalis”, “of 100” for “of 500”, “after 6” for “after 2”

Cat Flea = experiment: Mortality Test for Cat Flea; details: Ctenocephalides felis, 96 h
Method: To the bottom surface and the side surface of a petri dish having an inner diameter of 5.3 cm, 400 μL of an acetone solution in which 4 mg of the compound of the present invention was dissolved in 40 mL of acetone (concentration: 100 ppm) was applied and then acetone was volatilized to form a thin film of the compound of the present invention on the inner wall of the petri dish. […] In the petri dish, ten Ctenocephalides felis imagines (male and female were mixed) were released and the petri dish was capped and stored in a thermostat room of 25° C. The number of killed imagines after 4 days was measured and the mortality was calculated from the same calculation formula as that in Test Example 1. Here, the test was carried out on the single sample.

American Dog Tick = experiment: Mortality Test for American Dog Tick; details: Dermacentor variabilis, 96 h; thin film in petri dishes, applied drug 0.1 μg/cm^2; protonymphs; after 4 days
Method: To the bottom surface and the side surface of two petri dishes having an inner diameter of 5.3 cm, 400 μL of an acetone solution in which 4 mg of the compound of the present invention was dissolved in 40 mL of acetone (concentration: 100 ppm) was applied and then acetone was volatilized to form a thin film of the compound of the present invention on the inner wall of the petri dishes. […] In one of the petri dishes, ten American dog tick (Dermacentor variabilis) protonymphs (male and female were mixed) were released, and the petri dish was capped with the other petri dish. […] The number of killed protonymphs after 4 days was measured and the mortality was calculated from the same calculation formula as that in Test Example 1. Here, the test was carried out on the single sample.

[2] = drug solution 100 ppm (mark *), cabbage leaf immersed, 2 instar larvae, after 6 days, read-out: mortality

CCS(=O)(=O)CC(=O)N(C)Cc1ccc(C2=NOC(c3cc(Cl)c(Cl)c(Cl)c3)(C(F)(F)F)C2)cc1Cl (stereo not drawn) [2-005, N-[2-chloro-4-[5-(3,4,5-trichlorophenyl)-5-trifluoromethyl-4,5-dihydroisoxazole-3-yl]phenyl]methyl-2-ethylsulfonyl-N-methylacetamide]
≥ 80%: mortality at 100 ppm (Homona magnanima) | mortality at 500 ppm [1] | mortality at 500 ppm (Nilaparvata lugens; in Oryza sativa) | mortality at 500 ppm (Bemisia argentifolii; in Solanum lycopersicum) | mortality at 500 ppm (Myzus persicae; in Brassica oleracea) | mortality at 500 ppm (Liriomyza trifolii; in Phaseolus vulgaris) | mortality at 500 ppm (Tetranychus urticae)

CS(CC(=O)NCc1ccc(C2=NOC(c3cc(Cl)c(Cl)c(C(F)(F)F)c3)(C(F)(F)F)C2)cc1Br)=NC(=O)C(F)(F)F (stereo not drawn) [1-102, N-[2-bromo-4-[5-[3,4-dichloro-5-(trifluoromethyl)phenyl]-5-trifluoromethyl-4,5-dihydroisoxazole-3-yl]phenyl]methyl-2-[N-(trifluoroacetyl)methylsulfinimidoyl]acetamide]
≥ 80%: mortality at 10 ppm (Plutella xylostella; in Brassica oleracea) | mortality at 10 ppm (Spodoptera litura; in Brassica oleracea) | mortality at 100 ppm (Spodoptera exigua; in Brassica oleracea) | mortality at 100 ppm (Aculops pelekassi)

CSC(SC)C(=O)NCc1ccc(C2=NOC(c3cc(C(F)(F)F)cc(C(F)(F)F)c3)(C(F)(F)F)C2)cc1Cl (stereo not drawn) [1-206, N-[4-[5-[3,5-bis(trifluoromethyl)phenyl]-5-trifluoromethyl-4,5-dihydroisoxazole-3-yl]-2-chlorophenyl]methyl-2,2-bis(methylthio)acetamide]
≥ 80%: mortality at 100 ppm (Spodoptera exigua; in Brassica oleracea) | mortality at 100 ppm (Aculops pelekassi) | mortality at 1 µg/cm2 (Cat Flea) | mortality at 0.1 µg/cm2 (American Dog Tick)

CS(=O)(=O)CC(=O)NCc1ccc(C2=NOC(c3cc(Br)cc(C(F)(F)F)c3)(C(F)(F)F)C2)cc1Cl (stereo not drawn) [1-113, N-[4-[5-[3-bromo-5-(trifluoromethyl)phenyl]-5-trifluoromethyl-4,5-dihydroisoxazole-3-yl]-2-chlorophenyl]methyl-2-(methylsulfonyl)acetamide]
≥ 80%: mortality at 100 ppm (Plutella xylostella; [2]) | mortality at 100 ppm (Spodoptera litura; [2]) | mortality at 100 ppm (Spodoptera exigua; drug solution 100 ppm, cabbage leaf immersed, 2 instar larvae, after 6 days, read-out: mortality) | mortality at 100 ppm (Homona magnanima) | mortality at 500 ppm (Nilaparvata lugens; drug solution 500 ppm, rice leaf sheath immersed, 2 instar larvae, after 6 days, read-out: mortality) | mortality at 500 ppm (Bemisia argentifolii; drug solution 500 ppm sprayed, tomato leaf with eggs, after 6 days, read-out: mortality) | mortality at 500 ppm (Myzus persicae; drug solution 500 ppm sprayed, cabbage leaf, apterous imagines, after 6 days, read-out: mortality) | mortality at 500 ppm (Liriomyza trifolii; drug solution 500 ppm, kidney bean leaf with eggs immersed, after 6 days, read-out: mortality) | mortality at 100 ppm (Aculops pelekassi; drug solution 100 ppm sprayed, mandarin orange leaf, larvae, after 6 days, read-out: mortality)

CCSCC(=O)N(C)Cc1ccc(C2=NOC(c3cc(Cl)c(Cl)c(Cl)c3)(C(F)(F)F)C2)cc1Cl (stereo not drawn) [2-002, N-[2-chloro-4-[5-(3,4,5-trichlorophenyl)-5-trifluoromethyl-4,5-dihydroisoxazole-3-yl]phenyl]methyl-2-ethylthio-N-methylacetamide]
≥ 80%: mortality at 100 ppm (Homona magnanima) | mortality at 500 ppm [1] | mortality at 500 ppm (Nilaparvata lugens; in Oryza sativa) | mortality at 500 ppm (Bemisia argentifolii; in Solanum lycopersicum) | mortality at 500 ppm (Myzus persicae; in Brassica oleracea) | mortality at 500 ppm (Tetranychus urticae)
